Experimental data as given in patent publication US20250213560A1, “NITROGEN-CONTAINING HETEROCYCLIC COMPOUNDS HAVING PHENYL GROUP AND USES THEREOF” (BNH RESEARCH CO., LTD., priority 2022, published 2025).

Columns and labels:
GluN2B = GluN2B protein expression by Western blot in primary cortical neuron cells; format: cell-based, mouse
In short: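 Mouse fetal cortical neurons (E17–18) cultured 13–14 days, then treated with BnH compounds for 24 h. GluN2B in RIPA lysates (20 μg/lane) measured by Western blot, normalized to β-actin, and expressed relative to vehicle set to 1 (n ≥ 3).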

APP/PS1 mice = assay: Hippocampal fEPSP I/O curve and LTP in Alzheimer's model mice; format: in vivo, mouse; settings: hippocampus CA1, Os pump ventricular infusion 3 μM
Source text: Field recordings were made with a concentric bipolar electrode positioned in the stratum radiatum of the CA1 region using an extracellular glass pipette (3.5 M (2) filled with aCSF. Specifically, fEPSPs were evoked by Schaffer collateral (SC)/commissural fibers with a concentric bipolar electrode placed 200 to 300 μm from the recording pipette. Stimulation was delivered through a bipolar electrode (FHC, Bowdoin, ME, USA) placed in the Schaffer collateral-CA1 (SC). Te SC circuit was visualized using differential interference contrast (DIC) microscopy at 4× magnification and identified by the ability to evoke short and constant latency field excitatory postsynaptic potentials (fEPSPs) at CA1 synapses by SC input stimulation. In all fEPSP experiments, the test stimulation were measured prior to the beginning of all the experiments (30 μA) and a test-pulse stimulation strength that evokes 50% of the maximum fEPSP was used. Baseline synaptic responses was recorded for 30 minutes, and then long-term potentiation (LTP) was induced by high-frequency stimulation (HFS; 100 Hz, 4 trains, 1 s duration, 20 s inter-train interval). […]
Excitatory postsynaptic potential (EPSP) was recorded by the whole-cell patch clamp method using a patch clamp amplifier (molecular devices, USA). […] It was then recorded for 60 minutes (LTP). […]

HDAC 1 to 9, and 11 = assay: HDAC catalytic activity assay (fluorogenic substrate, 10-dose IC50); format: biochemical; settings: 3-fold serial dilution starting at 100 μM, duplicates
Description: The compound was resuspended in 100 mM DMSO and tested in a 10-dose IC50 with 3-fold serial dilution starting at 100 μM against HDACs 1-9, and 11. As reference compounds, Trichostatin A (TSA) and TMP269 were tested in a 10-dose IC50 with 3-fold serial dilution starting at 10 μM or 1 μM.
10 μM Fluorogenic peptide from p53 residues 379-382 (RHKK (Ac) AMC) was used for the substrate for HDAC 1, 2, 3, and 6. 50 μM Fluorogenic HDAC Class2a Substrate (Trifluoroacetyl Lysine) was used for the substrate for HDAC 4, 5, 7, 9, and 11. 100 μM Fluorogenic peptide from p53 residues 379-382 (RHK (Ac) K (Ac) AMC) was used for the substrate for HDAC8.
IC50 values were calculated using the GraphPad Prism 4 program based on a sigmoidal dose-response equation and the blank (DMSO) value concentration was entered as 1.00E-12 M for curve fitting.
The experiments were performed in duplicates.

- inhibitory effect on HDAC catalytic activities (10-dose IC50) (HDAC 1 to 9, and 11): did not show any inhibitory effect
Compound: C[C@H]1CC[C@@H](C(=O)O)CN1C(=O)Cc1ccc(-c2cncnc2)cc1 [BnH12003, (3R,6S)-6-methyl-1-(2-(4-(pyrimidin-5-yl)phenyl)acetyl) piperidine-3-carboxylic acid]
- GluN2B expression effect (in words) (GluN2B; compared to vehicle / other compounds, Table 5): excellent effects
- Western blot results Mean (GluN2B expression) (GluN2B; relative value, vehicle set to 1, primary cortical neurons treated for 24 hours): 2.141
- I/O curve of field EPSP (synaptic efficacy) (APP/PS1 mice): synaptic efficacy was increased
- LTP of EPSP, excitatory SC pathway (APP/PS1 mice): significantly increased
